Data as given in patent US4727080A, “1-substituted derivatives of 6-fluoro-7-(pyrrol-1-yl)-1,4-dihydro-4-oxoquinoline-3-carboxylic acid, their preparation and their application as drugs” (Provesan S.A., priority 1984, dated 1988).
In brackets after ≈: the same amount, converted by molar mass.

Legend:
[1] = system: Bacillus subtilis ATCC 6633; assay: "In vitro" MIC, Bacillus subtilis; format: cell-based; details: ATCC6633; Bacillus subtilis ATCC 6633; dextrose agar, 37° C., 20 hours; read-out: "In vitro" MIC
Description: (§1) Antimicrobial pharmacological activity (G. L. Daquet and Y. A. Chabbect, Techniques en bacteriologie (Techniques in bacteriology), vol. 3, Flammarion Medecine-Sciences, Paris, 1972, and W. B. Hugo and A. D. Rusell, Pharmaceutical Microbiology, Blackwell Scientific Publications, London (1977).
Bacillus subtilis ATCC 6633
(§2) A streak culture of each of the microorganisms is formed in tubes of antibiotics agar no. 1 and incubated for 20 hours at 37° C. A culture loop is then taken and a culture is formed in a tryptone-soya broth and incubated for 20 hours at 37° C. The resulting culture is diluted to 1/4 with Ringer's physiological solution to give a standardized suspension of 10^5 ufc/ml for each organism.
(§3) Starting from a solution of 1000 μg/ml in 0.1N NaOH, each product is diluted successively in dextrose agar (melted beforehand and kept at 50° C.) to give the following concentrations: 64-32-16-8-4-2-1-0.5-0.25-0.125 μg of derivative/ml of medium.
(§4) After this, each concentration of each product is divided up into Petri dishes of 10 cm diameter at a rate of 10 ml of medium per dish and using as many dishes as there are microorganisms to be tested.
(§5) Once the medium has cooled, the dishes are treated with the inoculations at a rate of 0.4 ml of inoculation per dish. They are spread out with a Drigalski loop and the supernatant is collected. The inoculated dishes are incubated at 37° C. for 20 hours.

[2] = system: Micrococcus flavus ATCC 10240; assay: "In vitro" MIC, Micrococcus flavus; format: cell-based; details: ATCC10240; Micrococcus flavus ATCC 10240; dextrose agar, 37° C., 20 hours; read-out: "In vitro" MIC
Description: as §1
Micrococcus flavus ATTC 10240
as §2, §3, §4, §5

Sarcina lutea ATCC 9341 = assay: "In vitro" MIC, Sarcina lutea; format: cell-based; details: Micrococcus luteus, ATCC9341; Sarcina lutea ATCC 9341; dextrose agar, 37° C., 20 hours; read-out: "In vitro" MIC
Description: as §1, §2, §3, §4, §5

[3] = system: Staphylococcus aureus ATCC 5488/23; assay: "In vitro" MIC, Staphylococcus aureus ATCC 5488/23; format: cell-based; details: ATCC5488; Staphylococcus aureus ATCC 5488/23; dextrose agar, 37° C., 20 hours; read-out: "In vitro" MIC
Description: as §1
Staphylococcus aureus ATCC 5488/23
as §2, §3, §4, §5

[4] = system: Staphylococcus aureus ATCC 25178; assay: "In vitro" MIC, Staphylococcus aureus ATCC 25178; format: cell-based; details: ATCC25178; Staphylococcus aureus ATCC 25178; dextrose agar, 37° C., 20 hours; read-out: "In vitro" MIC
Description: as §1
Staphylococcus aureus ATCC 25178
as §2, §3, §4, §5

[5] = system: Streptococcus faecalis ATCC 10541; assay: "In vitro" MIC, Streptococcus faecalis; format: cell-based; details: Enterococcus faecalis, ATCC10541; Streptococcus faecalis ATCC 10541; dextrose agar, 37° C., 20 hours; read-out: "In vitro" MIC
Description: as §1
Streptococcus faecalis ATCC 10541
as §2, §3, §4, §5

[6] = system: Enterobacter aerogenes ATCC 15038; assay: "In vitro" MIC, Enterobacter aerogenes; format: cell-based; details: Klebsiella aerogenes, ATCC15038; Enterobacter aerogenes ATCC 15038; dextrose agar, 37° C., 20 hours; read-out: "In vitro" MIC
Description: as §1
Enterobacter aerogenes ATCC 15038
as §2, §3, §4, §5

[7] = system: Enterobacter cloacae CHSP-20; assay: "In vitro" MIC, Enterobacter cloacae; format: cell-based; details: CHSP20; Enterobacter cloacae CHSP-20; dextrose agar, 37° C., 20 hours; read-out: "In vitro" MIC
Description: as §1
Enterobacter cloacae CHSP-20
as §2, §3, §4, §5

[8] = system: Escherichia coli ATCC 10536; assay: "In vitro" MIC, Escherichia coli ATCC 10536; format: cell-based; details: ATCC10536; Escherichia coli ATCC 10536; dextrose agar, 37° C., 20 hours; read-out: "In vitro" MIC
Description: as §1
Escherichia coli ATCC 10536
as §2, §3, §4, §5

Escherichia coli R-1513 = assay: "In vitro" MIC, Escherichia coli R-1513; format: cell-based; details: R1513; Escherichia coli R-1513; dextrose agar, 37° C., 20 hours; read-out: "In vitro" MIC
Description: as §1, §2, §3, §4, §5

[9] = system: Klebsiella pneumoniae ATCC 10031; assay: "In vitro" MIC, Klebsiella pneumoniae; format: cell-based; details: ATCC10031; Klebsiella pneumoniae ATCC 10031; dextrose agar, 37° C., 20 hours; read-out: "In vitro" MIC
Description: as §1
Klebsiella pneumoniae ATCC 10031
as §2, §3, §4, §5

[10] = system: Citrobacter freundii ATCC 11606; assay: "In vitro" MIC, Citrobacter freundii; format: cell-based; details: ATCC11606; Citrobacter freundii ATCC 11606; dextrose agar, 37° C., 20 hours; read-out: "In vitro" MIC
Description: as §1
Citrobacter freundii ATCC 11606
as §2, §3, §4, §5

[11] = system: Proteus mirabilis ATCC 4675; assay: "In vitro" MIC, Proteus mirabilis; format: cell-based; details: ATCC4675; Proteus mirabilis ATCC 4675; dextrose agar, 37° C., 20 hours; read-out: "In vitro" MIC
Description: as §1
Proteus mirabilis ATCC 4675
as §2, §3, §4, §5

Proteus morganii CHSP-16 = assay: "In vitro" MIC, Proteus morganii; format: cell-based; details: Morganella morganii, CHSP16; Proteus morganii CHSP-16; dextrose agar, 37° C., 20 hours; read-out: "In vitro" MIC
Description: as §1, §2, §3, §4, §5

[12] = system: Pseudomonas aeruginosa 25115; assay: "In vitro" MIC, Pseudomonas aeruginosa 25115; format: cell-based; details: Pseudomonas aeruginosa 25115; dextrose agar, 37° C., 20 hours; read-out: "In vitro" MIC
Description: as §1
Pseudomonas aeruginosa 25115
as §2, §3, §4, §5

[13] = system: Pseudomonas aeruginosa ADSA 47; assay: "In vitro" MIC, Pseudomonas aeruginosa ADSA 47; format: cell-based; details: ADSA47; Pseudomonas aeruginosa ADSA 47; dextrose agar, 37° C., 20 hours; read-out: "In vitro" MIC
Description: as §1
Pseudomonas aeruginosa ADSA 47
as §2, §3, §4, §5

[14] = system: Salmonella typhimurium AMES 98; assay: "In vitro" MIC, Salmonella typhimurium AMES 98; format: cell-based; details: Salmonella enterica; Salmonella typhimurium AMES 98; dextrose agar, 37° C., 20 hours; read-out: "In vitro" MIC
Description: as §1
Salmonella typhimurium AMES 98
as §2, §3, §4, §5

[15] = system: Salmonella typhimurium AMES 100; assay: "In vitro" MIC, Salmonella typhimurium AMES 100; format: cell-based; details: Salmonella enterica; Salmonella typhimurium AMES 100; dextrose agar, 37° C., 20 hours; read-out: "In vitro" MIC
Description: as §1
Salmonella typhimurium AMES 100
as §2, §3, §4, §5

[16] = system: Serratia marcescens ATTC 13880; assay: "In vitro" MIC, Serratia marcescens; format: cell-based; details: ATTC13880; Serratia marcescens ATTC 13880; dextrose agar, 37° C., 20 hours; read-out: "In vitro" MIC
Description: as §1
Serratia marcescens ATTC 13880
as §2, §3, §4, §5

Shigella flexnerii = assay: "In vitro" MIC, Shigella flexnerii; format: cell-based; details: 20 h, read-out: "In vitro" MIC
Description: as §1, §2, §3, §4, §5

Acute toxicity to mice = details: mouse, in vivo, ip, suspension in 5% gum arabic, mortality over 7 days
Description: The experimental animals used to determine this toxicity were albino mice of the C.F.L.P. strain and of both sexes, weighing between 19 and 25 grams. After an 18-hour fasting period with water "ad libitum", the derivatives forming the subject of the present invention are administered intraperitoneally as a suspension in 5% gum arabic. The volume of suspension administered was 0.4 ml/20 grams (20 ml/kg) in all cases, the concentration of the suspension being changed according to the dose administered.
One hour after administration of the derivatives, the animals are given a standard Panlab rat-mouse food. The mortality was observed over a period of 7 days. Differences in mortality between the sexes were not observed with any of the products.

[17] = system: Enterobacteriaceae (Pseudomonas aeruginosa); assay: "In vitro" antimicrobial activity compared with nalidixic acid, Enterobacteriaceae (Pseudomonas aeruginosa); format: cell-based
Description: as §1, §2, §3, §4, §5

Gram-positive cocci = assay: "In vitro" antimicrobial activity compared with nalidixic acid, Gram-positive cocci; format: cell-based
Description: as §1, §2, §3, §4, §5

O=C(O)c1cn(CCO)c2cc(-n3cccc3)c(F)cc2c1=O [Example 2, 6-fluoro-7-(pyrrol-1-yl)-1-(2-hydroxyethyl)-4-oxo-1,4-dihydroquinoline-3-carboxylic acid]
MIC [1]: ≤ 0.062 µg/mL
MIC [2]: 16 µg/mL (≈ 50.6 µM)
MIC (Sarcina lutea ATCC 9341): 16 µg/mL (≈ 50.6 µM)
MIC [3]: 0.5 µg/mL (≈ 1.58 µM)
MIC [4]: 0.5 µg/mL (≈ 1.58 µM)
MIC [5]: 1 µg/mL (≈ 3.16 µM)
MIC [6]: 2 µg/mL (≈ 6.32 µM)
MIC [7]: 1 µg/mL (≈ 3.16 µM)
MIC [8]: 0.125 µg/mL (≈ 0.395 µM)
MIC (Escherichia coli R-1513): 1 µg/mL (≈ 3.16 µM)
MIC [9]: 0.062 µg/mL (≈ 0.196 µM)
MIC [10]: 1 µg/mL (≈ 3.16 µM)
MIC [11]: 1 µg/mL (≈ 3.16 µM)
MIC (Proteus morganii CHSP-16): 1 µg/mL (≈ 3.16 µM)
MIC [12]: 16 µg/mL (≈ 50.6 µM)
MIC [13]: ≥ 32 µg/mL
MIC [14]: 0.25 µg/mL (≈ 0.79 µM)
MIC [15]: 0.25 µg/mL (≈ 0.79 µM)
MIC [16]: 1 µg/mL (≈ 3.16 µM)
MIC (Shigella flexnerii): 1 µg/mL (≈ 3.16 µM)
LD50 at 168 h (Acute toxicity to mice): > 1600 mg/kg
"in vitro" activity compared with nalidixic acid [17]: greater "in vitro" activity than nalidixic acid
"in vitro" activity compared with nalidixic acid (Gram-positive cocci): greater "in vitro" activity than nalidixic acid

C=Cn1cc(C(=O)O)c(=O)c2cc(F)c(-n3cccc3)cc21 [Example 3, 6-fluoro-7-(pyrrol-1-yl)-1-vinyl-4-oxo-1,4-dihydroquinoline-3-carboxylic acid]
MIC [1]: ≤ 0.062 µg/mL
MIC [2]: 4 µg/mL (≈ 13.4 µM)
MIC (Sarcina lutea ATCC 9341): 8 µg/mL (≈ 26.8 µM)
MIC [3]: 0.5 µg/mL (≈ 1.68 µM)
MIC [4]: 0.5 µg/mL (≈ 1.68 µM)
MIC [5]: 16 µg/mL (≈ 53.6 µM)
MIC [6]: 1 µg/mL (≈ 3.35 µM)
MIC [7]: 1 µg/mL (≈ 3.35 µM)
MIC [8]: 0.125 µg/mL (≈ 0.419 µM)
MIC (Escherichia coli R-1513): 1 µg/mL (≈ 3.35 µM)
MIC [9]: 0.5 µg/mL (≈ 1.68 µM)
MIC [10]: 1 µg/mL (≈ 3.35 µM)
MIC [11]: 2 µg/mL (≈ 6.71 µM)
MIC (Proteus morganii CHSP-16): 2 µg/mL (≈ 6.71 µM)
MIC [12]: 4 µg/mL (≈ 13.4 µM)
MIC [13]: 8 µg/mL (≈ 26.8 µM)
MIC [14]: ≤ 0.062 µg/mL
MIC [15]: 0.5 µg/mL (≈ 1.68 µM)
MIC [16]: 1 µg/mL (≈ 3.35 µM)
MIC (Shigella flexnerii): 1 µg/mL (≈ 3.35 µM)
LD50 at 168 h (Acute toxicity to mice): > 1600 mg/kg
"in vitro" activity compared with nalidixic acid [17]: greater "in vitro" activity than nalidixic acid
"in vitro" activity compared with nalidixic acid (Gram-positive cocci): greater "in vitro" activity than nalidixic acid
